Test [1] relates to Burkholderia cepacia. Put plainly: Kinetic resolution by Lipase PS from Pseudomonas cepacia, catalyzed acylation by using Phenyl acetate.
Test [2] relates to Burkholderia cepacia. As to the kind of experiment: Kinetic resolution by Lipase PS from Pseudomonas cepacia, catalyzed acylation by using Succinic anhydride.
The test system of test [3] is Burkholderia cepacia. Put plainly: Kinetic resolution by Lipase PS from Pseudomonas cepacia, catalyzed acylation by using Isopropenyl acetate.
The test system of test [4] is Burkholderia cepacia. Put plainly: Kinetic resolution by Lipase PS from Pseudomonas cepacia, catalyzed acylation by using Vinyl acetate.

Each structure is given as a SMILES string. Where “and” joins values, the source holds several entries; their conditions need not be identical. Equal values may be shown once.

With `CN(C)C(=O)C[C@H](CO)COCc1ccccc1`, the results for the TIME in the test with Burkholderia cepacia [1] and in the test with Burkholderia cepacia [2] were 2 h and 8 h, respectively.
Take `CNC(=O)C[C@@H](CO)COCc1ccccc1`: in the test with Burkholderia cepacia [1], the TIME came to 12 h.
In the case of `CCN(CC)C(=O)C[C@H](CO)COCc1ccccc1`, the TIME in the test on Burkholderia cepacia [3] was 9 h; with Burkholderia cepacia [1] it was 3 h and 2 h; with Burkholderia cepacia [2], 4 h; with Burkholderia cepacia [4] it was 2 h.
For the compound `CCNC(=O)C[C@@H](CO)COCc1ccccc1`, the results for the TIME with Burkholderia cepacia [1] and in the test on Burkholderia cepacia [2] were 1 h and 5 h, respectively.
Regarding `O=C(C[C@@H](CO)COCc1ccccc1)NCc1ccccc1`, the TIME in the test with Burkholderia cepacia [1] was determined as 10 h.

The values above are taken from ChEMBL document CHEMBL1134882, “Preparation of chiral 4-benzyloxymethyldihydrofuran-2-one using lipase-catalyzed kinetic resolution: synthesis of (-)-virginiae butanolide C (VB C)” (Bioorg Med Chem Lett, 2002).
